Measurements reported in patent US20110230553A1, “CRYSTALLIZED FORM OF DRONEDARONE BASE” (SANOFI-AVENTIS, priority 2010, published 2011).
“Also recorded” adds a separate entry of the source.

Assays:
Format in all cases: physicochemical
[1] = Thermodynamic stability of the crystalline phases (DSC, X-ray at various temperatures); conditions: at and around room temperature / upon heating
Description: X-ray diffractograms registered at various temperatures from room temperature to 100° C., at intervals of 10° C., have confirmed the solid-solid transition from form A to form C. A first crystalline solid phase, designated as form A, exists from room temperature to […] Two crystalline forms are thus observed : form A from room temperature to about 50° C., and form C appearing above 50° C. and melting between 60 and 70° C.
All DSC measurements are performed with a Mettler DSC822e (module DSC822e/700/109/414935/0025). If not indicated differently, 40 μL Al-crucibles with sealed lid and hole are used. All measurements are carried out in a nitrogen gas flow of 50 mL/min and chosen heating rate was 10° C./min., with a heating from 25° C. to at least 150° C.
In comparison, the crystallized form C of dronedarone base presents a melting point at about 69° C. On heating with a rate of 10° C./min, form A transforms to form C at about 54° C.; on further heating, form C melts at about 65° C. (onset temperature of the second endothermic event). After formation of form C, if the heating is stopped below form C melting point and the medium is then cooled back to room temperature, form C typically transforms back to form A between 50 and 45° C.

[2] = Dynamic Vapor Sorption (DVS) moisture sorption/desorption isotherms; conditions: 25° C., relative humidity 0 to 95% and back, two cycles
Description: Moisture sorption/desorption isotherms are recorded on a DVS-1 from Surface Measurement Systems. Two cycles are run at 25° C., in which the relative humidity is stepped from 0 to 95% and back to 0%. The complete measurement time for both cycles is about 35 h. The data is evaluated using the software DVSWin V. 2.15.
The DVS isotherms of the crystallized form B of dronedarone base are represented on FIG. 5, wherein the change in dry mass (expressed in percentages) is plotted against the target relative humidity (RH, expressed in percentages). On FIG. 5, <<Sorp>> and <<Desorp>> respectively designate the humidity sorption and desorption of each cycle.

[3] = Stability study in climatic chamber: appearance; conditions: after 15 and 30 days at 50° C./80% RH
Description: (§1) The stabilities of two crystalline forms of dronedarone base, namely form B according to the instant invention and form A described above, are studied in a climatic chamber (reference : Firlabo SP_BVEHF) at 50° C., with or without 80% relative humidity (RH). The duration time of the stability study is set up at 1 month. Samples are monitored in terms of appearance by microscope observation, chemical degradation by HPLC, crystalline form and phase change by XRPD (X-Ray Powder Diffraction, reference : Bruker D5000) and thermal behavior by DSC and TGA (references : TA Instrument Q100/Q1000 for DSC analyses and 050/Q500 for TGA analyses). HPLC is performed with a Waters 2487 apparatus, using as mobile phase a gradient of acetonitrile and pH 4.0 phosphate buffer (30/70 to 70/30, V/V, gradient).

[4] = Stability study in climatic chamber: thermal behavior by DSC and TGA
Description: as §1

[5] = Stability study in climatic chamber: crystalline form and phase change by XRPD
Description: as §1

[6] = Stability study in climatic chamber: chemical degradation by HPLC; conditions: 50° C. with or without 80% RH, up to 30 days
Description: as §1
The results in terms of chemical degradation are presented in table 8, which summarizes the content in degradation product measured in the samples. The results in table 8 represent percentages in impurities (impurities appearing after the storage for 15 to 30 days, i.e. total impurities after storage minus impurities already present at t=0).
The percentages correspond to the area under the peaks detected in chromatography.

Compound	thermodynamic stability of the solid form [1]	hygroscopicity [2]	appearance after storage (visual) [3]	change in the DSC spectrum after storage ([4]; whatever the storage conditions)	crystalline form change by XRPD ([5]; all tested conditions, up to 30 days)	stability in terms of crystalline phase ([5]; storage at 50° C. with or without 80% RH)	chemical stability compared under the same storage conditions [6]	change in the DSC spectrum after storage ([4]; stored at 50° C./80% RH)	crystalline form change by XRPD ([5]; after 15 days at 50° C./80% RH)
CCCCc1oc2ccc(NS(C)(=O)=O)cc2c1C(=O)c1ccc(OCCCN(CCCC)CCCC)cc1 [Form C, 2-n-butyl-3-[4-(3-di-n-butylaminopropoxy)benzoyl]-5-methylsulfonamido-benzofuran]	unstable at room temperature	–	–	–	–	–	–	–	–
CCCCc1oc2ccc(NS(C)(=O)=O)cc2c1C(=O)c1ccc(OCCCN(CCCC)CCCC)cc1 [Form B, 2-n-butyl-3-[4-(3-di-n-butylaminopropoxy)benzoyl]-5-methylsulfonamido-benzofuran]	thermodynamically most stable one	low	no change is detected	No change	no change is detected	more stable than form A	more stable than form A	–	–
CCCCc1oc2ccc(NS(C)(=O)=O)cc2c1C(=O)c1ccc(OCCCN(CCCC)CCCC)cc1 [Form A, 2-n-butyl-3-[4-(3-di-n-butylaminopropoxy)benzoyl]-5-methylsulfonamido-benzofuran]	transforms to form C upon heating	–	yellow coloration; also recorded: agglomeration of the powder	–	–	–	–	additional endothermic peak	appearance of some peaks of form B
